These results are taken from US11384062B2 (CombiPhos Catalysts, Inc., priority 2017, dated 2022).

Read-outs that look alike come from different tables or passages of the source.

For data set [1] the following is noted: dosed IV to bile duct cannulated rats; cited from earlier work.
Data set [2] in a line: Metabolic stability in pooled rat liver microsomes. The following applies: for Percent Remaining (%) 0 min / Percent Remaining (%) 5 min / Percent Remaining (%) 15 min / Percent Remaining (%) 30 min / Percent Remaining (%) 45 min / CLint scaled at 0.5 µM: rat liver microsomes; for CLint scaled at 0.5 µM / half-life at 0.5 µM: rat, pooled rat liver microsomes; for CLint scaled at 0.5 µM: pH 7.4, Clint; for half-life at 0.5 µM: pH 7.4, T1/2, rat liver microsomes. Here is the method:
Buffer solutions were prepared as follows: • a. Buffer A: 0.1 M monobasic potassium phosphate buffer containing 1.0 mM EDTA. • b. Buffer B: 0.1 M dibasic potassium phosphate buffer containing 1.0 mM EDTA. • c. Buffer C: 0.1 M potassium phosphate buffer containing 1.0 mM EDTA was adjusted to pH 7.4 by titrating 700 mL of Buffer B with Buffer A while monitoring with a pH meter. • 2. An NADPH stock solution (6 mM) was prepared by dissolving NADPH into Buffer C. • 3. Spiking solutions were prepared for the reference compound (ketanserin) and the test compounds as follows: • a. A 500 μM spiking solution of the reference compound (ketanserin) was generated by adding 10 μL of a 10 mM stock solution of ketanserin in DMSO into 190 μL acetonitrile. A 1.5 μM spiking solution in microsomes (0.75 mg/mL) was generated by adding 1.5 μL of the 500 μM spiking solution and 18.75 μL of 20 mg/mL rat liver microsomes into 479.75 μL of Buffer C while cooling with ice. • b. […] A 0.75 μM spiking solution in microsomes (0.75 mg/mL) was generated by adding 1.5 μL of the 250 μM spiking solution and 18.75 μL of 20 mg/mL rat liver microsomes into 479.75 μL of Buffer C while cooling with ice. • 4. 30 μL of 1.5 μM spiking solution containing 0.75 mg/mL microsomes solution was dispensed into assay plates designated for different time points (0 min, 5 min, 15 min, 30 min, and 45 min; or 0 min, 15 min, 30 min, 45 min, and 60 min as shown in Tables 1-5 below) while cooling with ice. • 5. For the 0 min time point assay plate, 135 μL of ACN containing IS followed immediately by 15 μL of the 6 mM NADPH stock solution were added to the wells of the 0 min assay plate. • 6. All assay plates other than the 0 min assay plate were pre-incubated at 37° C. for 5 min, and then 15 μL of the 6 mM NADPH stock solution was added to the wells of the assay plates to start the reaction and timing. At the appropriate time (5 min, 15 min, 30 min, 45 min, or 60 min), 135 μL of ACN containing IS was added to the wells of the corresponding assay plates, respectively, to stop the reaction. • 7. After quenching, the plates were shaken in a vibrator (IKA, MTS 2/4) for 10 min (600 rpm/min) and then centrifuged at 5594 g for 15 min (Thermo Multifuge×3R). • 8. After centrifugation, 50 μL of the supernatant from each well was transferred into a 96-well sample plate containing 50 μL of ultrapure water (Millipore, ZMQS50F01) for LC/MS analysis.

A further data set has as its system PARP. The following applies: read-out: EC50, inhibition of PARP activity; whole cell assay; cited from earlier work.
For data set [3], the system named is BRCA-1 deficient cancer xenograft. The following applies: cited from earlier work.
Data set [4] deals with human tumor xenografts, p53 wild type and p53 mutant. The following applies: variety of human tumor xenografts; cited from earlier work. (In general: A xenograft is tissue or cells of one species grown in another, often human tumour cells in immunodeficient mice.)
A further data set concerns recurrent ovarian cancer. The following applies: cited from earlier work.
Data set [5] has as its system cancer cells with mutant BRCA-1 and BRCA-2. The following applies: read-out: CC50, inhibition of proliferation; cited from earlier work.
Data set [6] concerns CAPAN-1 pancreatic cancer cell xenograft. The following applies: 80 mg/kg qd, oral dosing, for two, three, or four weeks; cited from earlier work.

Take `NC(=O)c1cccc2cn(-c3ccc([C@@H]4CCCNC4)cc3)nc12` [[^14C]-niraparib]: the “recovered radioactivity as the parent drug” value in data set [1] is given as 45%.
As a reminder, the CLint scaled is the capacity of the preparation to metabolise the compound, expressed as a volume cleared per time. As usually defined, the half-life is the time needed for the level to fall by half in the phase considered. Turning to `O=C(c1ccc(F)cc1)C1CCN(CCn2c(=O)[nH]c3ccccc3c2=O)CC1` [ketanserin], in data set [2] (Table 1 (Example 16)), the “Percent Remaining (%) 0 min” value is given as 100.00%, the “Percent Remaining (%) 5 min” value stood at 65.84%, the “Percent Remaining (%) 15 min” value was found to be 41.07% and the “Percent Remaining (%) 30 min” value is 17.68%. In data set [2] (Table 1 (Example 16)), the “Percent Remaining (%) 45 min” value came out at 9.13%, the CLint scaled at 0.5 µM came to 188 mL/min/kg and the half-life at 0.5 µM worked out at 13.2 min. In addition, in data set [2] (Table 2 (Example 17)), the “Percent Remaining (%) 0 min” value is listed as 100%, the “Percent Remaining (%) 5 min” value is reported as 94.13%, the “Percent Remaining (%) 15 min” value worked out at 61.07% and the “Percent Remaining (%) 30 min” value is 32.18%. For the same compound, in data set [2] (Table 2 (Example 17)), the “Percent Remaining (%) 45 min” value is 21.24%, the CLint scaled at 0.5 µM is 142 mL/min/kg and the half-life at 0.5 µM is 17.5 min. For the same compound, in data set [2] (Table 3 (Example 18)), the “Percent Remaining (%) 0 min” value is 100.00%, the “Percent Remaining (%) 5 min” value is 78.33%, the “Percent Remaining (%) 15 min” value was 45.04% and the “Percent Remaining (%) 30 min” value is given as 21.55%. Also, in data set [2] (Table 3 (Example 18)), the “Percent Remaining (%) 45 min” value was found to be 10.67%, the CLint scaled at 0.5 µM stood at 179 mL/min/kg and the half-life at 0.5 µM is 13.9 min. In data set [2] (Table 4 (Example 19)), the “Percent Remaining (%) 0 min” value stood at 100.00%, the “Percent Remaining (%) 5 min” value is recorded as 78.33%, the “Percent Remaining (%) 15 min” value was found to be 45.04% and the “Percent Remaining (%) 30 min” value is reported as 21.55%. For the same compound, in data set [2] (Table 4 (Example 19)), the “Percent Remaining (%) 45 min” value is listed as 10.67%, the CLint scaled at 0.5 µM was 179 mL/min/kg and the half-life at 0.5 µM was determined as 13.9 min. In addition, in data set [2] (Table 5 (Example 20)), the “Percent Remaining (%) 0 min” value came to 100.00%, the “Percent Remaining (%) 5 min” value amounted to 82.83%, the “Percent Remaining (%) 15 min” value is listed as 51.29% and the “Percent Remaining (%) 30 min” value was determined as 25.82%. Besides, in data set [2] (Table 5 (Example 20)), the “Percent Remaining (%) 45 min” value is given as 15.08%, the CLint scaled at 0.5 µM came out at 154 mL/min/kg and the half-life at 0.5 µM turned out to be 16.1 min.
The EC50 is the concentration giving half of the maximal effect. On to `NC(=O)c1cccc2cn(-c3ccc([C@@H]4CCCNC4)cc3)nc12` [niraparib, (S)-2-(4-(piperidin-3-yl)phenyl)-2H-indazole-7-carboxamide], for which the EC50 with PARP is […]. Besides, the tumor growth result in data set [3] (80 mg/kg qd, oral dosing, after one or two weeks of treatment) is “significant inhibition of tumor growth”; in data set [3] (after four week treatment), “complete and sustained regression”; in data set [3] (continuous daily dosing for three or four weeks), “tumor shrinkage”. Also, the “effect on radiation response” value in data set [4] was “strongly enhances the effect of radiation”. Moreover, the “median PFS” value was 21.0 months with recurrent ovarian cancer (germline BRCA mutant patients); 12.9 months in the data set with recurrent ovarian cancer (non-gBRCAmut cohort, HRD-positive tumors); 9.3 months in the data set with recurrent ovarian cancer (overall non-germline BRCA mutant cohort). Further, the discontinuation rate with recurrent ovarian cancer (patients) was 14.7%. Further, the “treatment-emergent grade 3/4 adverse event: anemia” value in the data set with recurrent ovarian cancer (patients) is reported as 24.8%. Besides, the “treatment-emergent grade 3/4 adverse event: neutropenia” value with recurrent ovarian cancer (patients) was 11.2%. The “treatment-emergent grade 3/4 adverse event: thrombocytopenia” value in the data set with recurrent ovarian cancer (patients) was 28.3%. Moreover, the CC50 in data set [5] was 10 to 100 nM. For the same compound, the tumor growth inhibition in data set [6] is given as roughly 60%.
